# Laboratory results from US11702428B2, “Chemical compounds as inhibitors of interleukin-1 activity” (Genentech, Inc., priority 2017, dated 2023).
# Like-named read-outs stand apart in the source and are kept apart here.
# Legend:
# [1] = test system: LPS and nigericin stimulated cells; assay: cells; format: cell-based; conditions: for IC50: Homo sapiens, read-out: CTG protective IC50
# Protocol: Viability of compound treated cells is measured using CellTiter-Glo® assay (Promega, Madison, Wis.) that measures the ATP content of cells which is proportional to the number of live cells within a well. This is a counter-screen to establish that the reduction of IL-1β levels in LPS and nigericin stimulated and compound treated cells is not due to cytotoxicity, but rather through the inhibition of the inflammasome pathway. Compounds inhibiting NRLP3 inflammasome activation ultimately increase the viability of LPS and nigericin stimulated cells by blocking NLRP3 mediated pyroptosis that would otherwise lead to cell lysis.
# NLRP3 inflammasome [2] = molecular target: T1, NLRP3 inflammasome (Homo sapiens, UniProt Q96P20); assay: NLRP3 inflammasome activation assay in PBMCs (LPS priming, nigericin), IL-1β by ELISA; format: cell-based; design: Human peripheral blood mononuclear cells (PBMCs); host or cells: primary human PBMCs from healthy donors; conditions: LPS, nigericin; for IC50: read-out: PBMC IL-1β IC50
# Protocol: (§1) Some of the following assays were used to determine the inhibitory activity of the compounds on the NLRP3 inflammasome using a common inflammasome activation stimuli-nigericin.
# Human peripheral blood mononuclear cells (PBMCs), consisting of lymphocytes (T, B and NK cells), monocytes and dendritic cells, were freshly isolated from human peripheral blood from healthy donors. Cells were obtained through an IRB approved donor program by iXCells Biotechnologies where all the donors were tested for bacterial and viral infections. Cells were purified from peripheral blood using ficoll gradient centrifugation.
# (§2) Cells were then stimulated with 10 uM Nigericin (Sigma Aldrich; InvivoGen) for 1.5 h. Plates were centrifuged at 1,500 rpm for 3 minutes to pellet cells and supernatant was transferred into new plates for subsequent experiments.
# (§3) For ELISA assays cells were seeded into 96-well plates. Post study, supernatants were removed and the levels of mature IL-1β, IL-18 and TNFα (Quantikine ELISA, R&D systems) were measured in cell conditioned media by ELISA according to manufacturer's instructions.
# [3] = Human microsomal stability (Eh); format: in vitro ADME; conditions: hepatic extraction ratio; 0.5 mg/mL microsomal protein, 1 μM, NADPH; liver blood flow 20.7 mL/min/kg
# Protocol: The stock solutions of test article and positive control were prepared at a concentration of 10 mM using DMSO as diluents. All stock solutions were then diluted to working concentrations at 0.25 mM with 70% acetonitrile. The cofactor used in this study was NADPH regenerating system, that was composed of 6.5 mM NADP, 16.5 mM G-6-P, 3 U/mL G-6-P D. The quench reagent was consisted of acetonitrile containing tolbutamide and propanolol (serve as internal standard). Incubation mixtures containing 0.5 mg/mL liver microsomal protein and […] test article/positive control in 100 mM potassium phosphate buffer.
# The 0-minute samples were prepared by addition of an 80 μL aliquot of each incubation mixture to 300 μL quench reagent to precipitate proteins. The samples were vortexed, and then a 20 μL aliquot of the NADPH regenerating system was added in. The reaction was initiated by addition of 80 μL of the NADPH regenerating system to 320 μL of each incubation mixture. The final incubation conditions achieved in 400 μL are: 0.5 mg/mL microsomal protein, 1 μM test article/positive control, 1.3 mM NADP, 3.3 mM glucose 6 phosphate, 0.6 U/mL glucose 6 phosphate dehydrogenase. The mixtures were incubated in a 37° C. water bath with gentle shaking. A 100 μL aliquot of each mixture was removed at 10, 30, 90 minutes to a clean 96-well plate which contains 300 μL quench reagent to precipitate proteins, and centrifuged (4000×g, 10 min). 80 μL of supernatant are taken into 96-well assay plates pre-added with 160 μL ultrapure water, and then analyzed by LC-MS/MS. Hepatic extraction ratio (Eh) values were calculated from measured in vitro clearance assuming a human liver blood flow of 20.7 mL/min/kg. Eh values of <0.3 are indicative of compounds with favorable metabolic stability.
# Pharmacokinetics in mice = format: in vivo, CD-1 Mice; conditions: for Cmax / clearance / half-life / AUC(0-t) / Vd: mouse, plasma; for AUC(0-t): read-out: AUC 0-24 hr; for Vd: read-out: Vz
# Protocol: The intravenous dosing solutions were administered at 1 mg/kg and were made by dissolving the test article into the formulations shown below. The oral dosing suspensions or solutions were administered at 10 mg/kg and were made by dissolving the test article in the formulations shown below. Blood samples were collected into tubes containing either K2EDTA or sodium heparin and kept chilled on ice block or wet ice immediately following collection and during processing. After centrifugation, the resulting plasma samples were stored in a freezer at −80° C. until samples were analyzed. Pharmacokinetic parameters were determined following measurement of compound concentrations in plasma using standard bioanalytical methods at timepoints ranging from 0 to 24 hours.
# NLRP3 inflammasome [4] = molecular target: T1, NLRP3 inflammasome; assay: NLRP3 inflammasome activation assay in Kupffer cells (LPS priming, nigericin), IL-1β/IL-18 by ELISA; format: cell-based; conditions: KCs
# Source text: as §1
# Human Kupffer cells (KCs), specialized liver macrophages residing in […], were obtained by gradient isolation from liver specimens harvested post-mortem by Samsara Sciences. Cells were obtained through an IRB approved donor program by Samsara Sciences and all donors tested negative for bacterial and viral infections.
# as §2, §3
# [5] = LPS and nigericin stimulated cells, CellTiter-Glo
# [6] = Male CD-1 Mice, PO, 10 mg/kg, 0.5% MC
# [7] = Female CD-1 Mice, PO, 10 mg/kg, 0.5% MC, 0.25% Tween 80
# T1 sequence (Q96P20 whole entry): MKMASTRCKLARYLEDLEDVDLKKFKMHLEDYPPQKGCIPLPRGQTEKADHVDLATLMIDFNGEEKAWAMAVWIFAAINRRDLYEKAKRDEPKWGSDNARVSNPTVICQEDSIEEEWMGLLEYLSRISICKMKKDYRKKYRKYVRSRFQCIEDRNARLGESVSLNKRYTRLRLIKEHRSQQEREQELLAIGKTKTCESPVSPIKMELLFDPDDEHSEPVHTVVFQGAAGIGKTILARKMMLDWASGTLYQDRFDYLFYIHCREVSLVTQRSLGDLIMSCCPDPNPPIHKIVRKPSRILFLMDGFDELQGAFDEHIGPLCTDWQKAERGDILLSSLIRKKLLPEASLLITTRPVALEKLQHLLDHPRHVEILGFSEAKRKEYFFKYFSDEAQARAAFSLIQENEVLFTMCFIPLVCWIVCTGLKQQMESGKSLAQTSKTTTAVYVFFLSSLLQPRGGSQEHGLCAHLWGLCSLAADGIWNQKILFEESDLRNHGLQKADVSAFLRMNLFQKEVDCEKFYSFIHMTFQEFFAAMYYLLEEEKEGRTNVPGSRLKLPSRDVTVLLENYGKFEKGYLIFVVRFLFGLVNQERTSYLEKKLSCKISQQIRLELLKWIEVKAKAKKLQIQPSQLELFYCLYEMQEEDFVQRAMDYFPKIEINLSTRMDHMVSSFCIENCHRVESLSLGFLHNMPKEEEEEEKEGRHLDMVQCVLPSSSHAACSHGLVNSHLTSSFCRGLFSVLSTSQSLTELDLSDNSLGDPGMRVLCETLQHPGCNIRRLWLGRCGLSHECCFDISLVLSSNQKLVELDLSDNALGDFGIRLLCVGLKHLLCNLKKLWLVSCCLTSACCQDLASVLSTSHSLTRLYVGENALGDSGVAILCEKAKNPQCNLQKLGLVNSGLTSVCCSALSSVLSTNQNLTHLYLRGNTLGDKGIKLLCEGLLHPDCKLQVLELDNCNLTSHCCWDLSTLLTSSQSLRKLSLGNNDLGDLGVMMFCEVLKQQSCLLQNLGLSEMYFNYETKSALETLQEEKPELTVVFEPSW
smiles,measurement,setting,value
CC(C)(C)OC(=O)NCC1COc2c(S(=O)(=O)NC(=O)Nc3c4c(cc5c3CCC5)CCC4)cnn2C1 (centres unmarked),IC50,[1]; [5],< 100 nM
same,IC50,NLRP3 inflammasome [2],< 100 nM
O=C(Nc1c2c(cc3c1CCC3)CCC2)NS(=O)(=O)c1cnn2c1OCC(N1CCC1)C2 (centres unmarked),IC50,[1]; [5],< 100 nM
same,IC50,NLRP3 inflammasome [2],< 100 nM
CNC1COc2c(S(=O)(=O)NC(=O)Nc3c4c(cc5c3CCC5)CCC4)cnn2C1 (centres unmarked),IC50,[1],< 100 nM
same,Human Microsomal Stability (Eh),[3],0.1
Cc1ccc2cccnc2c1NC(=O)NS(=O)(=O)c1cnn2c1OCCC2,CTG protective IC50,[1]; [5],No Curve
same,PBMC IL-1β IC50,NLRP3 inflammasome [2],No Curve
CN[C@H]1COc2c(S(=O)(=O)NC(=O)Nc3c4c(c(F)c5c3CCC5)CCC4)cnn2C1,IC50,[1]; [5],< 100 nM
same,Human Microsomal Stability (Eh),[3],0.2
same,IC50,NLRP3 inflammasome [2],< 100 nM
CC1(C)COc2c(S(=O)(=O)NC(=O)Nc3c4c(cc5c3CCC5)CCC4)cnn2C1 [A],Bioavailability (% F),Pharmacokinetics in mice; [6],64 % F
same,Cmax,"Pharmacokinetics in mice; Male CD-1 Mice, IV, 1 mg/kg",9200 ng/mL
same,clearance,"Pharmacokinetics in mice; Male CD-1 Mice, IV, 1 mg/kg",0.667 mL/min/kg
same,half-life,"Pharmacokinetics in mice; Male CD-1 Mice, IV, 1 mg/kg",2.8 h
same,AUC(0-t),"Pharmacokinetics in mice; Male CD-1 Mice, IV, 1 mg/kg",29200 ng·h/mL
same,Vd,"Pharmacokinetics in mice; Male CD-1 Mice, IV, 1 mg/kg",0.137 L/kg
same,Cmax,Pharmacokinetics in mice; [6],22700 ng/mL
same,half-life,Pharmacokinetics in mice; [6],3.4 h
same,AUC(0-t),Pharmacokinetics in mice; [6],186000 ng·h/mL
O=C(Nc1c2c(cc3c1CCC3)CCC2)NS(=O)(=O)c1cnn2c1OCC1(CC1)C2 [B],Bioavailability (% F),Pharmacokinetics in mice; [6],100 % F
same,Cmax,"Pharmacokinetics in mice; Male CD-1 Mice, IV, 1 mg/kg",11700 ng/mL
same,clearance,"Pharmacokinetics in mice; Male CD-1 Mice, IV, 1 mg/kg",0.833 mL/min/kg
same,half-life,"Pharmacokinetics in mice; Male CD-1 Mice, IV, 1 mg/kg",1.9 h
same,AUC(0-t),"Pharmacokinetics in mice; Male CD-1 Mice, IV, 1 mg/kg",20200 ng·h/mL
same,Vd,"Pharmacokinetics in mice; Male CD-1 Mice, IV, 1 mg/kg",0.13 L/kg
same,Cmax,Pharmacokinetics in mice; [6],63000 ng/mL
same,half-life,Pharmacokinetics in mice; [6],1.9 h
same,AUC(0-t),Pharmacokinetics in mice; [6],256000 ng·h/mL
CN(C)[C@H]1COc2c(S(=O)(=O)NC(=O)Nc3c4c(cc5c3CCC5)CCC4)cnn2C1 [C],Bioavailability (% F),Pharmacokinetics in mice; [6],33 % F
same,Cmax,"Pharmacokinetics in mice; Male CD-1 Mice, IV, 1 mg/kg",5290 ng/mL
same,clearance,"Pharmacokinetics in mice; Male CD-1 Mice, IV, 1 mg/kg",5.67 mL/min/kg
same,half-life,"Pharmacokinetics in mice; Male CD-1 Mice, IV, 1 mg/kg",1.3 h
same,AUC(0-t),"Pharmacokinetics in mice; Male CD-1 Mice, IV, 1 mg/kg",2990 ng·h/mL
same,Vd,"Pharmacokinetics in mice; Male CD-1 Mice, IV, 1 mg/kg",0.64 L/kg
same,Cmax,Pharmacokinetics in mice; [6],7530 ng/mL
same,half-life,Pharmacokinetics in mice; [6],1 h
same,AUC(0-t),Pharmacokinetics in mice; [6],9950 ng·h/mL
"O=C(Nc1c2c(cc3c1CCC3)CCC2)NS(=O)(=O)c1cnn2c1OCC1(COC1)C2 [Compound 5, N-((1,2,3,5,6,7-hexahydro-s-indacen-4-yl)carbamoyl)-5′,7′-dihydrospiro[oxetane-3,6′-pyrazolo[5,1-b][1,3]oxazine]-3′-sulfonamide]",IL-1β production in Kupffer cells (FIG. 2),NLRP3 inflammasome [4],inhibition
same,IL-18 production in Kupffer cells (FIG. 2),NLRP3 inflammasome [4],inhibition
CN[C@H]1COc2c(S(=O)(=O)NC(=O)Nc3c4c(cc5c3CCC5)CCC4)cnn2C1 [D],Bioavailability (% F),Pharmacokinetics in mice; [7],69 % F
same,Cmax,"Pharmacokinetics in mice; Female CD-1 Mice, IV, 1 mg/kg",3310 ng/mL
same,clearance,"Pharmacokinetics in mice; Female CD-1 Mice, IV, 1 mg/kg",5 mL/min/kg
same,half-life,"Pharmacokinetics in mice; Female CD-1 Mice, IV, 1 mg/kg",1.6 h
same,AUC(0-t),"Pharmacokinetics in mice; Female CD-1 Mice, IV, 1 mg/kg",3400 ng·h/mL
same,Vd,"Pharmacokinetics in mice; Female CD-1 Mice, IV, 1 mg/kg",0.69 L/kg
same,Cmax,Pharmacokinetics in mice; [7],13700 ng/mL
same,half-life,Pharmacokinetics in mice; [7],1.7 h
same,AUC(0-t),Pharmacokinetics in mice; [7],23500 ng·h/mL
COC1CN([C@H]2COc3c(S(=O)(=O)NC(=O)Nc4c5c(cc6c4CCC6)CCC5)cnn3C2)C1 [E],Bioavailability (% F),Pharmacokinetics in mice; [7],53 % F
same,Cmax,"Pharmacokinetics in mice; Female CD-1 Mice, IV, 1 mg/kg",2830 ng/mL
same,clearance,"Pharmacokinetics in mice; Female CD-1 Mice, IV, 1 mg/kg",10.7 mL/min/kg
same,half-life,"Pharmacokinetics in mice; Female CD-1 Mice, IV, 1 mg/kg",1.6 h
same,AUC(0-t),"Pharmacokinetics in mice; Female CD-1 Mice, IV, 1 mg/kg",1570 ng·h/mL
same,Vd,"Pharmacokinetics in mice; Female CD-1 Mice, IV, 1 mg/kg",1.47 L/kg
same,Cmax,Pharmacokinetics in mice; [7],8620 ng/mL
same,half-life,Pharmacokinetics in mice; [7],1.9 h
same,AUC(0-t),Pharmacokinetics in mice; [7],8270 ng·h/mL
O=C(Nc1c2c(cc3c1CCC3)CCC2)NS(=O)(=O)c1cnn2c1OCCCC2 [drawing 515],IC50,[1]; [5],< 100 nM
same,IC50,NLRP3 inflammasome [2],< 100 nM
CC1CCOc2c(S(=O)(=O)NC(=O)Nc3c4c(cc5c3CCC5)CCC4)cnn21 (centres unmarked) [drawing 516],IC50,[1]; [5],< 100 nM
same,IC50,NLRP3 inflammasome [2],< 100 nM
O=C(Nc1c2c(cc3c1CCC3)CCC2)NS(=O)(=O)c1cnn2c1OCC(F)C2 (centres unmarked) [drawing 517],IC50,[1]; [5],< 100 nM
same,IC50,NLRP3 inflammasome [2],100 to 1000 nM
O=C(Nc1c2c(cc3c1CCC3)CCC2)NS(=O)(=O)c1cnn2c1OCC1(CC1)C2 [drawing 528],IC50,"NLRP3 inflammasome [4]; LPS, nigericin, read-out: KC IL-1β IC50",< 100 nM
same,IC50,[1]; [5],< 100 nM
same,Human Microsomal Stability (Eh),[3],0.6
same,IC50,NLRP3 inflammasome [2],< 100 nM
